In patent US10800791B2, “Triazole ACC inhibitors and uses thereof” (Gilead Apollo, LLC, priority 2015, dated 2020) one finds IC50, MIC and IC90 data, which are given here for 3 compounds.

Assay [1] deals with human (hACC2) (Homo sapiens, UniProt O00763). Description: In vitro ACC inhibition assay (ADP-Glo), hACC2. Format: biochemical. The note with it: 5 nM ACC2, 20 μM ATP, 20 μM acetyl-CoA. The procedure:
The detailed procedure is as follows. […] 10 μL ADP glo reagent was added. […] 20 μL kinase detection reagent was added.
(In general: In ADP-Glo the light output rises with the ADP produced.)

The subject of assay [2] is C. albicans. Description: Antifungal Activity Assay (broth microtiter MIC), C. albicans. Format: cell-based, Candida albicans. To be noted: Candida albicans, ATCC90028, 48 h. The method, boiled down: (§1)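 MIC read by eye at 48 h, comparing challenged wells with the growth control. Yeasts grown overnight on Sabouraud dextrose agar at 35° C, suspended in RPMI 1640+MOPS and added at 2.5×10^3 CFU/mL final, following CLSI M27-A3.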

The test system of assay [3] is C. krusei. As to the kind of experiment: Antifungal Activity Assay (broth microtiter MIC), C. krusei. The note with it: Pichia kudriavzevii, ATCC6258, 48 h. Format: cell-based, Candida krusei. The method, boiled down: as §1
Assay [4] has as its system C. parapsilosis. As to the kind of experiment: Antifungal Activity Assay (broth microtiter MIC), C. parapsilosis. Format: cell-based, Candida parapsilosis. To be noted: Lodderomyces parapsilosis, ATCC22019, 48 h. The method in brief:
as §1

In assay [5] the test system is Botrtyis cinerea (Bc). Description: Growth inhibition assay of fungal pathogens, Bc. Format: cell-based. To be noted: 48 h. The method, boiled down: (§2)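 Inhibition percentages reflect 48 h OD600 and visual scores relative to a 2% DMSO control. Test concentrations were 50, 10, 2 ppm or 2, 0.4, 0.08 ppm final, applied to spores in 17% V8 medium.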
Assay [6] has as its system Diplodia maydis (Dm). As to the kind of experiment: Growth inhibition assay of fungal pathogens, Dm. Format: cell-based. The note with it: Stenocarpella maydis, 48 h. The method in brief: as §2
In assay [7] the test system is Fusarium virguliforme (Fv). As to the kind of experiment: Growth inhibition assay of fungal pathogens, Fv. Format: cell-based. The note with it: 48 h. The method, boiled down: as §2
Assay [8] concerns Phytophthora capsici (Pc). As to the kind of experiment: Growth inhibition assay of fungal pathogens, Pc. Format: cell-based. To be noted: 48 h. The method, boiled down:
as §2

Assay [9] has as its system Rhizoctonia solani (Rs). As to the kind of experiment: Growth inhibition assay of fungal pathogens, Rs. Format: cell-based. The note with it: 48 h.
Assay [10] concerns the target fungal (fACC2) (UniProt Q00955). The note with it: read-out: fACC2 (in vitro ACC2 Inhibition Assay, IC50), ADP-Glo, 5 nM ACC2, 20 μM ATP, 20 μM acetyl-CoA.
Where [11] appears, read: Table 3a, ATCC 90028, 3 replicates, MIC recorded at 48 h, read-out: MIC, C. albicans ATCC 90028.
Where [12] appears, read: Table 3b (additional results), ATCC 90028, 3 replicates, MIC recorded at 48 h, read-out: MIC, C. albicans ATCC 90028.
Setting [13] is: Table 3a, ATCC 6258, 3 replicates, MIC recorded at 48 h, read-out: MIC, C. krusei ATCC 6258.
Setting [14] is: Table 3b (additional results), ATCC 6258, 3 replicates, MIC recorded at 48 h, read-out: MIC, C. krusei ATCC 6258.
[15] abbreviates: Table 3a, ATCC 22019, 3 replicates, MIC recorded at 48 h, read-out: MIC, C. parapsilosis ATCC 22019.
Setting [16] is: Table 3b (additional results), ATCC 22019, 3 replicates, MIC recorded at 48 h, read-out: MIC, C. parapsilosis ATCC 22019.
[17] abbreviates: Botrtyis cinerea, growth inhibition at 48 hours vs 2% DMSO control, read-out: Concentration at 90% Inhibition Bc.
Setting [18] is: Botrtyis cinerea, growth inhibition vs 2% DMSO control at 48 hours, read-out: Concentration at 90% Inhibition Bc.
Setting [19] is: Diplodia maydis, growth inhibition at 48 hours vs 2% DMSO control, read-out: Concentration at 90% Inhibition Dm.
[20] abbreviates: Diplodia maydis, growth inhibition vs 2% DMSO control at 48 hours, read-out: Concentration at 90% Inhibition Dm.
Where [21] appears, read: growth inhibition at 48 hours vs 2% DMSO control, read-out: Concentration at 90% Inhibition Fv.
The mark [22] stands for this setting: growth inhibition vs 2% DMSO control at 48 hours, read-out: Concentration at 90% Inhibition Fv.
Setting [23] is: growth inhibition at 48 hours vs 2% DMSO control, read-out: Concentration at 90% Inhibition Pc.
The mark [24] stands for this setting: growth inhibition vs 2% DMSO control at 48 hours, read-out: Concentration at 90% Inhibition Pc.
[25] abbreviates: mycelial plugs, growth inhibition at 48 hours vs 2% DMSO control, read-out: Concentration at 90% Inhibition Rs.
Where [26] appears, read: mycelial plugs, growth inhibition vs 2% DMSO control at 48 hours, read-out: Concentration at 90% Inhibition Rs.

pIC50: −log10 of the molar value. In brackets after ≈: the same amount, converted by molar mass. Where two headings read alike, the source gives them in different places. A value given as a limit tells only on which side of the number the result lay.

The term pIC50 denotes the IC50 on a negative log10 scale, so that one unit is a factor of ten. The term MIC denotes the lowest concentration found to suppress growth.

Sequence of fungal (fACC2) (Q00955 whole entry): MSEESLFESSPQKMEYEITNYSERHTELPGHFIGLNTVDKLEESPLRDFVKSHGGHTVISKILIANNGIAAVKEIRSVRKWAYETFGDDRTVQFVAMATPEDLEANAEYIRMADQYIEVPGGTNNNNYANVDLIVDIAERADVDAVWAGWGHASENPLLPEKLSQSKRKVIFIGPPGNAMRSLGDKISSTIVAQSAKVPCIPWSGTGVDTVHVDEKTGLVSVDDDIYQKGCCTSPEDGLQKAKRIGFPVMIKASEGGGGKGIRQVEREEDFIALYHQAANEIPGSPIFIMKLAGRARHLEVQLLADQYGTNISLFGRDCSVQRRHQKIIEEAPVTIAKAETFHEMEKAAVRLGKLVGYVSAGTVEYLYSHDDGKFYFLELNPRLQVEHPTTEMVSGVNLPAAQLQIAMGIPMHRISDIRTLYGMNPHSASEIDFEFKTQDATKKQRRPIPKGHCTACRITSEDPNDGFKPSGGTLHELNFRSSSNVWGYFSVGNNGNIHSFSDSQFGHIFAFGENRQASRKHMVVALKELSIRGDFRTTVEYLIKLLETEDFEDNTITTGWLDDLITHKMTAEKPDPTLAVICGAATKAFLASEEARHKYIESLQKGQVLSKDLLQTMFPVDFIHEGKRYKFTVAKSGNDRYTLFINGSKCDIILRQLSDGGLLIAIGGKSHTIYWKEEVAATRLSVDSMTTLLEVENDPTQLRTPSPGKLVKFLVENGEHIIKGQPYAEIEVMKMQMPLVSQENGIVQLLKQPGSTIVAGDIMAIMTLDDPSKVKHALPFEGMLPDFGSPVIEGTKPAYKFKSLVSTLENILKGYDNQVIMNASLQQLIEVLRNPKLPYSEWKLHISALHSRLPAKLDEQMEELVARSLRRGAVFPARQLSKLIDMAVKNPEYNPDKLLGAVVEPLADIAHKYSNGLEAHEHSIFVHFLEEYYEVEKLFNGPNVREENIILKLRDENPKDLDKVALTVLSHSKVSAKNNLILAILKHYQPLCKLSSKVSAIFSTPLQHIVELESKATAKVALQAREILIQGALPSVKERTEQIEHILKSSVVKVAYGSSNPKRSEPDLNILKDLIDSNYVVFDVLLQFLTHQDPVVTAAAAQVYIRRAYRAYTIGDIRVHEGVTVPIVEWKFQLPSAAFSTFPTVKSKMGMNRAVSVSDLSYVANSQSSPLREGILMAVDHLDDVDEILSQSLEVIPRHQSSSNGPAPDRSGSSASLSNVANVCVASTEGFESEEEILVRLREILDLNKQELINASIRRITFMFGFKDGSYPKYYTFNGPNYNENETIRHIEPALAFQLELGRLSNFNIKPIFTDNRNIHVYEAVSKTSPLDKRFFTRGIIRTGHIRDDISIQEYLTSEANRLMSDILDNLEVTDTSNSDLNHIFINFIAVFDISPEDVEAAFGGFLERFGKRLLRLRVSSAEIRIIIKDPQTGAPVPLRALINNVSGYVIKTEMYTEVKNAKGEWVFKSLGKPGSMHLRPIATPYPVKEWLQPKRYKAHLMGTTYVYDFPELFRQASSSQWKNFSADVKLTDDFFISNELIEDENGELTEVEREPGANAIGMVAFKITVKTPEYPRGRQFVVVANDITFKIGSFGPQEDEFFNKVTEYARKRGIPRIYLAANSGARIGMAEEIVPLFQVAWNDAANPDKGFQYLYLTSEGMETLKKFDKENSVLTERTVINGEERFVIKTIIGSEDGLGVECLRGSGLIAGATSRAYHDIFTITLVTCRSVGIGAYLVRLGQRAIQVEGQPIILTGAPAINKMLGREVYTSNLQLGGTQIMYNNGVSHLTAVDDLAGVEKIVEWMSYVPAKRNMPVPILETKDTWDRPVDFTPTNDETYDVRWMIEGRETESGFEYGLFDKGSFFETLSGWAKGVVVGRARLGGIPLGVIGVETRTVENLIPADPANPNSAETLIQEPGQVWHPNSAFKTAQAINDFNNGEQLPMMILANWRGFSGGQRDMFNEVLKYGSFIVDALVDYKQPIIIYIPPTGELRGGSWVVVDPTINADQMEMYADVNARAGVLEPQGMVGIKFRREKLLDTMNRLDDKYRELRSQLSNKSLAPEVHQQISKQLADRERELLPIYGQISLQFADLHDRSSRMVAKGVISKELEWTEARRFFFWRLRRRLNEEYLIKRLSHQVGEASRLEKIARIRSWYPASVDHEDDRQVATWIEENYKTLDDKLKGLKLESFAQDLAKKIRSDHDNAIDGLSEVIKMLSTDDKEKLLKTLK
Sequence of human (hACC2) (O00763 whole entry): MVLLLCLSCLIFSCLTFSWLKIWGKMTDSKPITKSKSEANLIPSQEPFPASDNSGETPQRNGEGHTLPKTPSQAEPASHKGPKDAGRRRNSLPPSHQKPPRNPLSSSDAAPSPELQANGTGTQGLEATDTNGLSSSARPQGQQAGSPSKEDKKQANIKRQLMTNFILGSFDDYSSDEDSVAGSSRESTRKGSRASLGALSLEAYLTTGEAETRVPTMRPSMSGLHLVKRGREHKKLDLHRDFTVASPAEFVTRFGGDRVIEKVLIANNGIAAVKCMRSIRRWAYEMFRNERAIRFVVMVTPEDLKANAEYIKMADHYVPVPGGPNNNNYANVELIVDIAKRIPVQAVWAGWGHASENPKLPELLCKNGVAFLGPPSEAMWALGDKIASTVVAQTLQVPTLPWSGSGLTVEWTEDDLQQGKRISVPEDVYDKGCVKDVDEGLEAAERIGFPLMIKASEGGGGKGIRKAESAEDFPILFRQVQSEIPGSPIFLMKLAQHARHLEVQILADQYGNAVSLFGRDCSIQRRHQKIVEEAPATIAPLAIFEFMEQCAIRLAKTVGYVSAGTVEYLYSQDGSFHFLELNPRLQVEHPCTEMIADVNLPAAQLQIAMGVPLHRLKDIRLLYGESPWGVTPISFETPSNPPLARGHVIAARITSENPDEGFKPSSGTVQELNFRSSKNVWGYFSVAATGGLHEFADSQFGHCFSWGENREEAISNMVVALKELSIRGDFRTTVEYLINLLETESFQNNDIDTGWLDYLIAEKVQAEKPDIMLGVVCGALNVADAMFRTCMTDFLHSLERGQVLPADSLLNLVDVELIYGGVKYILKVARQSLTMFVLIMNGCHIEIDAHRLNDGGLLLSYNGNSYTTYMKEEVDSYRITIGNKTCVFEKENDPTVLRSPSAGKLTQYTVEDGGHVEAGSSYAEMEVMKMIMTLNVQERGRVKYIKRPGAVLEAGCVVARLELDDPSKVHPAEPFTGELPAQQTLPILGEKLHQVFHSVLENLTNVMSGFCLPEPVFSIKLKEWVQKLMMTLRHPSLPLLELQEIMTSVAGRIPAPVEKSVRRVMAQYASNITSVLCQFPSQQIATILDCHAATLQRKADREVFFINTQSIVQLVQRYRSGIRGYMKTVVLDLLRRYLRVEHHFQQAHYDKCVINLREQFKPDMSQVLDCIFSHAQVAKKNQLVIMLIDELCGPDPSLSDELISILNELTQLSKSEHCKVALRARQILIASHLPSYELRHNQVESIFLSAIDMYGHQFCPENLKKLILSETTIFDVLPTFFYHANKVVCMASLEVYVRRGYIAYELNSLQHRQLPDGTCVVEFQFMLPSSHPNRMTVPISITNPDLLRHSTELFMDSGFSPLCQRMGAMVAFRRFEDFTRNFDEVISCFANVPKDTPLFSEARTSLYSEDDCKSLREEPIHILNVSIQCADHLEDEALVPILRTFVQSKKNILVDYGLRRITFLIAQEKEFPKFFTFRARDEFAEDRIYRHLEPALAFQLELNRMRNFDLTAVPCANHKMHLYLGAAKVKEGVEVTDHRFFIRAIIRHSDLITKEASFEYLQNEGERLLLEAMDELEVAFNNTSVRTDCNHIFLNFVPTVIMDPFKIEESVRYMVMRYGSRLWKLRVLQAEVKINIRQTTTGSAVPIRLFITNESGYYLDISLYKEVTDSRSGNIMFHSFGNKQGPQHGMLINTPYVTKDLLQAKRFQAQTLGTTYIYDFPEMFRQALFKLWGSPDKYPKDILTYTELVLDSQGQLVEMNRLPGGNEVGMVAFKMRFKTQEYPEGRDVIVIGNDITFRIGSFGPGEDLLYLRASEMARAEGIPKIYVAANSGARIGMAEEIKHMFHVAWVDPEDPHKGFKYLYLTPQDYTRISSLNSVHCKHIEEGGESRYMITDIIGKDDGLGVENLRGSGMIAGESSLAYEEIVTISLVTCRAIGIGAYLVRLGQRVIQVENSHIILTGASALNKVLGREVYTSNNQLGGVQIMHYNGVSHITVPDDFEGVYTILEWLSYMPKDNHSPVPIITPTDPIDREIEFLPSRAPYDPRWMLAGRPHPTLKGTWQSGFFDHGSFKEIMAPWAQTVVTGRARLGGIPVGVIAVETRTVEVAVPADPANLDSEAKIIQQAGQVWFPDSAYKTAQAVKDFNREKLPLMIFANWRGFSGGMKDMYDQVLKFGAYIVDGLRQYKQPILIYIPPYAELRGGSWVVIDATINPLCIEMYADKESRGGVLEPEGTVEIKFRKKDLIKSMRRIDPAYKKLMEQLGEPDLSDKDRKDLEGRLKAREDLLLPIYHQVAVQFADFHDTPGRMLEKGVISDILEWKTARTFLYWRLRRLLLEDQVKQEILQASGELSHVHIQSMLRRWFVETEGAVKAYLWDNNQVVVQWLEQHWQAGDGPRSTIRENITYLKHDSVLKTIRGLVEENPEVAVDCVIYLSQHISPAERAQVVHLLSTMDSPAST

On to `COc1ccc(F)cc1[C@H](Cn1c(=O)n([C@H](C)C(=O)N(C)C(C)C)c(=O)c2c(C)c(-n3nccn3)sc21)OCCO` [Compound I-85, (R)-2-(1-((R)-2-(5-fluoro-2-methoxyphenyl)-2-(2-hydroxy-ethoxy)ethyl)-5-methyl-2,4-dioxo-6-(2H-1,2,3-triazol-2-yl)-1,4-dihydro-thieno[2,3-d]pyrimidin-3(2H)-yl)-N-isopropyl-N-methylpropanamide], for which the negative logarithm of the IC50 (pIC50) in assay [1] (Table 2a) is 7.40 to 8.00; in assay [1] (Table 2b, additional results), 7.40 to 8.00; in assay [10] (Table 2a), 9.00 to 9.40; in assay [10] (Table 2b, additional results) it was 9.00 to 9.52. Moreover, the MIC in assay [2] (setting [11]) was 0.25 to 1 µg/mL (≈ 0.425 to 1.7 µM); in assay [2] (setting [12]) it was 1.01 to 2 µg/mL (≈ 1.72 to 3.4 µM); in assay [3] (setting [13]), 0.25 to 1 µg/mL (≈ 0.425 to 1.7 µM); in assay [3] (setting [14]) it was 1.01 to 2 µg/mL (≈ 1.72 to 3.4 µM); in assay [4] (setting [15]), 0.25 to 1 µg/mL (≈ 0.425 to 1.7 µM); in assay [4] (setting [16]) it was 2.01 to 4 µg/mL (≈ 3.41 to 6.8 µM). In addition, the IC90 was 2 µg/mL (≈ 3.4 µM) in assay [5] (setting [17]); 2 µg/mL (≈ 3.4 µM) in [5] (setting [18]); 0.08 µg/mL (≈ 0.136 µM) in [6] (setting [19]); 0.08 µg/mL (≈ 0.136 µM) in assay [6] (setting [20]); 0.4 µg/mL (≈ 0.68 µM) in [7] (setting [21]); 0.4 µg/mL (≈ 0.68 µM) in assay [7] (setting [22]). Further, the IC90 in [8] (setting [23]) stood at 2 µg/mL (≈ 3.4 µM); in assay [8] (setting [24]) it was 2 µg/mL (≈ 3.4 µM); in [9] (setting [25]), 0.08 µg/mL (≈ 0.136 µM); in assay [9] (setting [26]), 0.08 µg/mL (≈ 0.136 µM).

On to `COCCCO[C@@H](Cn1c(=O)n([C@@H](C)C(=O)NC(C)C)c(=O)c2c(C)c(-n3nccn3)sc21)c1cc(F)ccc1OC` [Compound I-86, (S)-2-(1-((R)-2-(5-fluoro-2-methoxyphenyl)-2-(3-methoxy-propoxy)ethyl)-5-methyl-2,4-dioxo-6-(2H-1,2,3-triazol-2-yl)-1,4-dihydrothieno[2,3-d]pyrimidin-3(2H)-yl)-N-isopropylpropanamide], for which the negative logarithm of the IC50 (pIC50) in [1] (Table 2a) was 7.40 to 8.00; in [1] (Table 2b, additional results) it was 7.40 to 8.00; in assay [10] (Table 2a), 8.30 to 9.00; in assay [10] (Table 2b, additional results), 8.30 to 9.00. For the same compound, the MIC is 2.1 to 4 µg/mL (≈ 3.48 to 6.64 µM) in [2] (read-out: MIC, C. albicans ATCC 90028, Table 3a, 3 replicates, MIC recorded at 48 h); 2.01 to 4 µg/mL (≈ 3.34 to 6.64 µM) in [2] (read-out: MIC, C. albicans ATCC 90028, Table 3b (additional results), 3 replicates, MIC recorded at 48 h); 2.1 to 4 µg/mL (≈ 3.48 to 6.64 µM) in [3] (read-out: MIC, C. krusei ATCC 6258, Table 3a, 3 replicates, MIC recorded at 48 h); 1.01 to 2 µg/mL (≈ 1.68 to 3.32 µM) in assay [3] (read-out: MIC, C. krusei ATCC 6258, Table 3b (additional results), 3 replicates, MIC recorded at 48 h); 2.1 to 4 µg/mL (≈ 3.48 to 6.64 µM) in assay [4] (read-out: MIC, C. parapsilosis ATCC 22019, Table 3a, 3 replicates, MIC recorded at 48 h); 1.01 to 2 µg/mL (≈ 1.68 to 3.32 µM) in assay [4] (read-out: MIC, C. parapsilosis ATCC 22019, Table 3b (additional results), 3 replicates, MIC recorded at 48 h). Also, the IC90 in assay [5] (read-out: Concentration at 90% Inhibition Bc, Botrtyis cinerea, growth inhibition at 48 hours vs 2% DMSO control) is 0.4 µg/mL (≈ 0.664 µM); in assay [5] (read-out: Concentration at 90% Inhibition Bc, Botrtyis cinerea, growth inhibition vs 2% DMSO control at 48 hours), 0.4 µg/mL (≈ 0.664 µM); in [6] (read-out: Concentration at 90% Inhibition Dm, Diplodia maydis, growth inhibition at 48 hours vs 2% DMSO control), 2 µg/mL (≈ 3.32 µM); in [6] (read-out: Concentration at 90% Inhibition Dm, Diplodia maydis, growth inhibition vs 2% DMSO control at 48 hours) it was 2 µg/mL (≈ 3.32 µM); in assay [7] (read-out: Concentration at 90% Inhibition Fv, Fusarium virguliforme, growth inhibition at 48 hours vs 2% DMSO control), 10 µg/mL (≈ 16.6 µM); in assay [7] (read-out: Concentration at 90% Inhibition Fv, Fusarium virguliforme, growth inhibition vs 2% DMSO control at 48 hours), above 50 µg/mL. Also, the IC90 is above 50 µg/mL in assay [8] (read-out: Concentration at 90% Inhibition Pc, Phytophthora capsici, growth inhibition at 48 hours vs 2% DMSO control); above 50 µg/mL in assay [8] (read-out: Concentration at 90% Inhibition Pc, Phytophthora capsici, growth inhibition vs 2% DMSO control at 48 hours); 2 µg/mL (≈ 3.32 µM) in assay [9] (read-out: Concentration at 90% Inhibition Rs, Rhizoctonia solani, mycelial plugs, growth inhibition at 48 hours vs 2% DMSO control); 2 µg/mL (≈ 3.32 µM) in assay [9] (read-out: Concentration at 90% Inhibition Rs, Rhizoctonia solani, mycelial plugs, growth inhibition vs 2% DMSO control at 48 hours).

As for `COCCCO[C@@H](Cn1c(=O)n([C@H](C)C(=O)NC(C)C)c(=O)c2c(C)c(-n3nccn3)sc21)c1cc(F)ccc1OC` [Compound I-87, (R)-2-(1-((R)-2-(5-fluoro-2-methoxyphenyl)-2-(3-methoxy-propoxy)ethyl)-5-methyl-2,4-dioxo-6-(2H-1,2,3-triazol-2-yl)-1,4-dihydrothieno[2,3-d]pyrimidin-3(2H)-yl)-N-isopropylpropanamide], the negative-log IC50 (pIC50) was 8.00 to 8.30 in assay [1] (Table 2a); 8.00 to 8.30 in [1] (Table 2b, additional results); 8.30 to 9.00 in [10] (Table 2a); 8.30 to 9.00 in [10] (Table 2b, additional results). The minimal inhibitory concentration (MIC) in [2] (setting [11]) was in the range of 1.1 to 2 µg/mL (≈ 1.83 to 3.32 µM); in assay [2] (setting [12]) it was 2.01 to 4 µg/mL (≈ 3.34 to 6.64 µM); in assay [3] (setting [13]), 1.1 to 2 µg/mL (≈ 1.83 to 3.32 µM); in assay [3] (setting [14]), 1.01 to 2 µg/mL (≈ 1.68 to 3.32 µM); in [4] (setting [15]), 0.25 to 1 µg/mL (≈ 0.415 to 1.66 µM); in assay [4] (setting [16]), 1.01 to 2 µg/mL (≈ 1.68 to 3.32 µM). For the same compound, the IC90 in [5] (setting [17]) amounted to 0.08 µg/mL (≈ 0.133 µM); in [5] (setting [18]) it was 0.08 µg/mL (≈ 0.133 µM); in assay [6] (setting [19]), 0.4 µg/mL (≈ 0.664 µM); in [6] (setting [20]), 0.4 µg/mL (≈ 0.664 µM); in [7] (setting [21]) it was 0.08 µg/mL (≈ 0.133 µM); in assay [7] (setting [22]), 0.08 µg/mL (≈ 0.133 µM). The IC90 in [8] (setting [23]) is above 50 µg/mL; in assay [8] (setting [24]) it was above 50 µg/mL; in assay [9] (setting [25]), 0.08 µg/mL (≈ 0.133 µM); in assay [9] (setting [26]), 0.08 µg/mL (≈ 0.133 µM).
